# In ChEMBL document CHEMBL6178012, “Discovery of RP-1664: A First-in-Class Orally Bioavailable, Selective PLK4 Inhibitor” (J Med Chem, 2025):
# Experiments:
# [1] = in vitro; conditions: mouse, liver microsomes
# [2] = in vitro; conditions: dog, MDCK
# [3] = tested on: MCF7; assay: cells; conditions: Homo sapiens
# [4] = in vitro; conditions: human, cryopreserved hepatocytes
# [5] = in vitro; conditions: human, Caco-2
# [6] = in vitro; conditions: human, Caco-2; remark: listed apart in the source
# [7] = in vivo; conditions: female, CD-1, mouse, po, 5 mg/kg
# [8] = in vivo; conditions: female, CD-1, mouse, iv, 1 mg/kg
# [9] = in vivo; conditions: cynomolgus monkey, po, 1.25 mg/kg
# [10] = in vivo; conditions: male, Sprague-Dawley, rat, po
# [11] = in vivo; conditions: male, Beagle, dog, iv, 0.5 mg/kg
# [12] = in vitro; conditions: mouse, cryopreserved hepatocytes
# [13] = in vitro; conditions: rhesus monkey, liver microsomes
# [14] = in vitro; conditions: dog, cryopreserved hepatocytes
# [15] = in vitro; conditions: rhesus monkey, cryopreserved hepatocytes
# [16] = in vitro; conditions: human, liver microsomes
# [17] = in vivo; conditions: male, Beagle, dog, po, 1.15 mg/kg
# [18] = in vitro; conditions: rat, cryopreserved hepatocytes
# [19] = target: T1, Serine/threonine-protein kinase PLK4 (Homo sapiens) (UniProt O00444); conditions: Mus musculus; SCID-Beige; CAL-148; dose lower 6.0 mg/kg, dose upper […], route po, time 4.0 day
# T1 sequence (whole entry): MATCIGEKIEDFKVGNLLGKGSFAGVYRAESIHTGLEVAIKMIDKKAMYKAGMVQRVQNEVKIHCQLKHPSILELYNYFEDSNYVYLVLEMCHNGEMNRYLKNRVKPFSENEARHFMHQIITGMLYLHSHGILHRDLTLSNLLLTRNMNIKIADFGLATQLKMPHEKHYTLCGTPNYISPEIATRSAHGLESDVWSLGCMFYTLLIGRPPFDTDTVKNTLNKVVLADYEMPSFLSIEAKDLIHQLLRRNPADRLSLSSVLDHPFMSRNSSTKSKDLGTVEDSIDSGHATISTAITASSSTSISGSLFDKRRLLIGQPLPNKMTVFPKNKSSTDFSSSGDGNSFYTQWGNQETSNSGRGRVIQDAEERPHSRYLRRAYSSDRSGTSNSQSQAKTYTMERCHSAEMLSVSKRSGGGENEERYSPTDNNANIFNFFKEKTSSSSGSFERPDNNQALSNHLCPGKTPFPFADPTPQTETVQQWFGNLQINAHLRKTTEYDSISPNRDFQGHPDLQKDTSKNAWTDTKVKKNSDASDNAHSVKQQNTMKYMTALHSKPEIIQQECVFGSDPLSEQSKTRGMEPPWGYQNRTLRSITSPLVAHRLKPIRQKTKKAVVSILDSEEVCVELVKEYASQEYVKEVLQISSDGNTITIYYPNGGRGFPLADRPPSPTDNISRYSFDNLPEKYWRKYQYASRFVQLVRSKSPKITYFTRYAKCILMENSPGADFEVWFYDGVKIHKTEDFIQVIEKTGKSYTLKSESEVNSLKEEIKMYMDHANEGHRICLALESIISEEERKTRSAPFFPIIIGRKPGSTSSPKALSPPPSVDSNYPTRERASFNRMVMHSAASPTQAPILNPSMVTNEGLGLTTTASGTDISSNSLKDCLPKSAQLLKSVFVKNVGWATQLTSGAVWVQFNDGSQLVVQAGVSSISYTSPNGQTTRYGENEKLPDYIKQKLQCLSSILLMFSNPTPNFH
# [20] = in vitro; conditions: dog, liver microsomes
# [21] = in vitro; conditions: rat, liver microsomes
# [22] = in vivo; conditions: cynomolgus monkey, iv, 0.5 mg/kg
# [23] = target: T1, Serine/threonine-protein kinase PLK4 (Homo sapiens); conditions: Mus musculus; SCID-Beige; CAL-148; dose lower 6.0 mg/kg, dose upper […], route po, time 7.0 day
smiles,measurement,setting,value
COc1c(Nc2cc(C)[nH]n2)nc(Sc2ccc(S(C)(=O)=O)cc2)nc1-c1cnn(C)c1,microsomal CLint at 1 µM,[1],< 7.7 µL/min/mg
COc1c(Nc2cc(C)[nH]n2)nc(Sc2ccc(S(C)(=O)=O)cc2F)nc1N1CCOCC1,microsomal CLint at 1 µM,[1],31 µL/min/mg
same,"Papp A→B at 2 h, 1 µM",[2],14 ×10⁻⁶ cm/s
Cc1cc(Nc2nc(Sc3ccc(S(C)(=O)=O)cc3F)nc(-c3cnn(C)c3)c2C2CC2)n[nH]1,EC50,[3],1700 nM
Cc1cc(Nc2nc(N(C)c3c(F)cc(S(C)(=O)=O)cc3F)nc(-c3cc(C(C)(C)O)n(C)n3)c2C2CC2)n[nH]1,hepatocyte CLint at 1 µM,[4],6 µL/min/1e6 cells
same,"efflux ratio at […], 10 µM",[5],6.9
same,"Papp at […], 10 µM",[6],7.8 ×10⁻⁶ cm/s
same,bioavailability at 24 h,[7],55%
same,EC50,[3],23 nM
same,clearance at 24 h,[8],12 mL/min/kg
Cc1cc(Nc2nc(N(C)c3cc(F)c(S(C)(=O)=O)cc3F)nc(-c3cnn(C)c3)c2C2CC2)n[nH]1,hepatocyte CLint at 1 µM,[4],42 µL/min/1e6 cells
same,EC50,[3],160 nM
Cc1cc(Nc2nc(N(C)c3c(F)cc(S(C)(=O)=O)cc3F)nc(-c3cnn(C)c3CO)c2C2CC2)n[nH]1,hepatocyte CLint at 1 µM,[4],6 µL/min/1e6 cells
same,bioavailability at 24 h,[7],23%
same,EC50,[3],140 nM
same,clearance at 24 h,[8],15 mL/min/kg
Cc1cc(Nc2nc(N(C)c3c(F)cc(S(C)(=O)=O)cc3F)nc(-c3cn(C)nc3CO)c2C2CC2)n[nH]1,hepatocyte CLint at 1 µM,[4],12.8 µL/min/1e6 cells
Cc1cc(Nc2nc(N(C)c3c(F)cc(S(C)(=O)=O)cc3F)nc(N3CCOCC3)c2C2CC2)n[nH]1,hepatocyte CLint at 1 µM,[4],50.9 µL/min/1e6 cells
same,EC50,[3],150 nM
Cc1cc(Nc2nc(N(C)c3ccc(S(C)(=O)=O)cc3F)nc(-c3cnn(C)c3)c2C2CC2)n[nH]1,EC50,[3],430 nM
COc1c(Nc2cc(C)[nH]n2)nc(Sc2ccc(S(C)(=O)=O)cc2F)nc1-c1cnn(C)c1,microsomal CLint at 1 µM,[1],< 7.7 µL/min/mg
same,EC50,[3],890 nM
Cc1cc(Nc2nc(N(C)c3c(F)cc(S(C)(=O)=O)c(F)c3F)nc(-c3cnn(C)c3)c2C2CC2)n[nH]1,EC50,[3],67 nM
Cc1cc(Nc2nc(N(C)c3c(F)cc(S(C)(=O)=O)cc3F)nc(-c3cn(C)nc3C)c2C2CC2)n[nH]1,hepatocyte CLint at 1 µM,[4],50.1 µL/min/1e6 cells
same,bioavailability at 24 h,[7],> 100%
same,EC50,[3],83 nM
same,clearance at 24 h,[8],10 mL/min/kg
Cc1cc(Nc2nc(N(C)c3c(F)cc(S(C)(=O)=O)cc3F)nc(-c3cn4c(n3)COCC4)c2C2CC2)n[nH]1,hepatocyte CLint at 1 µM,[4],< 3.8 µL/min/1e6 cells
same,"efflux ratio at […], 10 µM",[5],4.4
same,"Papp at […], 10 µM",[6],12 ×10⁻⁶ cm/s
same,bioavailability at 24 h,[7],40%
same,EC50,[3],35 nM
same,clearance at 24 h,[8],3 mL/min/kg
COc1c(Nc2cc(C)[nH]n2)nc(Sc2ccc(S(C)(=O)=O)cc2F)nc1N1CCCCC1,microsomal CLint at 1 µM,[1],47 µL/min/mg
same,"Papp A→B at 2 h, 1 µM",[2],8.1 ×10⁻⁶ cm/s
Cc1cc(Nc2nc(N(C)c3c(F)cc(S(C)(=O)=O)cc3F)nc(-c3cnn(C)c3)c2C2CC2)n[nH]1,hepatocyte CLint at 1 µM,[4],5.3 µL/min/1e6 cells
same,"efflux ratio at […], 10 µM",[5],1.1
same,"Papp at […], 10 µM",[6],28 ×10⁻⁶ cm/s
same,bioavailability at 24 h,[7],> 100%
same,EC50,[3],65 nM
same,clearance at 24 h,[8],7 mL/min/kg
Cc1cc(Nc2nc(N(C)c3c(F)cc(S(N)(=O)=O)cc3F)nc(-c3cnn(C)c3)c2C2CC2)n[nH]1,hepatocyte CLint at 1 µM,[4],19.4 µL/min/1e6 cells
COc1c(Nc2cc(C)[nH]n2)nc(Sc2ccc(S(=O)(=O)Cc3cccc([N+](=O)[O-])c3F)cc2F)nc1N1CCCCC1,microsomal CLint at 1 µM,[1],> 416 µL/min/mg
same,"Papp A→B at 2 h, 1 µM",[2],0.1 ×10⁻⁶ cm/s
CN(c1nc(Nc2cc(C3CC3)[nH]n2)c(C2CC2)c(-c2cnn(C)c2)n1)c1c(F)cc(S(C)(=O)=O)cc1F,hepatocyte CLint at 1 µM,[4],12 µL/min/1e6 cells
same,EC50,[3],57 nM
Cc1cc(Nc2nc(N(C)c3ccc(S(C)(=O)=O)cc3Cl)nc(-c3cnn(C)c3)c2C2CC2)n[nH]1,EC50,[3],180 nM
Cc1cc(Nc2nc(N(C)c3c(F)cc(S(C)(=O)=O)cc3F)nc(-c3ccnnc3)c2C2CC2)n[nH]1,hepatocyte CLint at 1 µM,[4],51.5 µL/min/1e6 cells
same,EC50,[3],92 nM
CN(c1nc(Nc2cc(C(F)F)[nH]n2)c(C2CC2)c(-c2cnn(C)c2)n1)c1c(F)cc(S(C)(=O)=O)cc1F,EC50,[3],860 nM
Cc1cc(Nc2nc(Oc3ccc(S(C)(=O)=O)cc3F)nc(-c3cnn(C)c3)c2C2CC2)n[nH]1,EC50,[3],2500 nM
Cc1cc(Nc2nc(N(C)c3c(F)cc(S(C)(=O)=O)cc3F)nc(-c3cn(C)c(C4CC4)n3)c2C2CC2)n[nH]1,hepatocyte CLint at 1 µM,[4],7.5 µL/min/1e6 cells
same,"efflux ratio at […], 10 µM",[5],2.5
same,"Papp at […], 10 µM",[6],28 ×10⁻⁶ cm/s
same,bioavailability at 24 h,[7],> 100%
same,EC50,[3],34 nM
same,clearance at 24 h,[8],9 mL/min/kg
Cc1cc(Nc2nc(N(C)c3ccc(S(=O)(=O)C4CC4)cc3F)nc(-c3cnn(C)c3)c2C2CC2)n[nH]1,hepatocyte CLint at 1 µM,[4],8.2 µL/min/1e6 cells
same,EC50,[3],210 nM
C#Cc1cc(Nc2nc(N(C)c3c(F)cc(S(C)(=O)=O)cc3F)nc(-c3cnn(C)c3)c2C2CC2)n[nH]1,hepatocyte CLint at 1 µM,[4],20.4 µL/min/1e6 cells
same,EC50,[3],230 nM
Cc1cc(Nc2nc(N(C)c3c(F)cc(S(C)(=O)=O)cc3F)nc(-c3cn(C)cn3)c2C2CC2)n[nH]1,bioavailability at 24 h,[9],96%
same,bioavailability at 24 h,[10],28%
same,clearance at 24 h,[11],30 mL/min/kg
same,hepatocyte CLint at 1 µM,[12],< 3.8 µL/min/1e6 cells
same,microsomal CLint at 1 µM,[13],< 7.7 µL/min/mg
same,hepatocyte CLint at 1 µM,[4],< 3.8 µL/min/1e6 cells
same,hepatocyte CLint at 1 µM,[14],< 3.8 µL/min/1e6 cells
same,"efflux ratio at […], 10 µM",[5],8.1
same,hepatocyte CLint at 1 µM,[15],< 3.8 µL/min/1e6 cells
same,microsomal CLint at 1 µM,[1],< 7.7 µL/min/mg
same,microsomal CLint at 1 µM,[16],< 7.7 µL/min/mg
same,bioavailability at 24 h,[17],98%
same,hepatocyte CLint at 1 µM,[18],< 3.8 µL/min/1e6 cells
same,inhibition,[19],Dose-dependent-effect
same,"Papp at […], 10 µM",[6],4.6 ×10⁻⁶ cm/s
same,microsomal CLint at 1 µM,[20],< 7.7 µL/min/mg
same,bioavailability at 24 h,[7],≥ 100%
same,microsomal CLint at 1 µM,[21],< 7.7 µL/min/mg
same,clearance at 24 h,[22],14 mL/min/kg
same,EC50,[3],51 nM
same,clearance at 24 h,[8],11 mL/min/kg
same,inhibition,[23],Dose-dependent-effect
Cc1cc(Nc2nc(Nc3ccc(S(C)(=O)=O)cc3F)nc(-c3cnn(C)c3)c2C2CC2)n[nH]1,EC50,[3],1300 nM
